TGI data for 16 molecules are collected here from PubChem BioAssay (NCI).

Holding throughout (test): NCI-60 cell line screen, 48 h
The test system of test [1] is A549 NSCLC.
For test [2], the system named is ACHN renal.
The test system of test [3] is DMS 114 small cell lung.
Test [4] deals with EKVX NSCLC.
Test [5] deals with NCI-H226 lung.
Test [6] concerns NCI-H522 lung.
The subject of test [7] is SNB-78 CNS.
Test [8] relates to SW-620 colon.
Test [9] concerns DLD-1 colon.

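1) Cells in 96-well plates. 2) Compound, 48 h, 5 concentrations. 3) Linear interpolation between surrounding doses. 4) Unreached endpoint = highest concentration. TGI denotes the concentration required for complete inhibition of growth.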

Turning to `CC(=O)NNc1nc(C)c(C(=O)NNC(=O)C(=O)Nc2ccc(Cl)c([N+](=O)[O-])c2)s1`, the TGI in test [1] was greater than 100 µM; in test [2], greater than 100 µM; in test [3], greater than 100 µM; in test [4], greater than 100 µM; in test [5], greater than 100 µM; in [6], 79.5 µM. In addition, the TGI in test [7] and in test [8] was greater than 100 µM in each case.
As for `O=C1C=CC2(CCCCCCC2=O)CC1` (centres undefined), the TGI in test [1], in [2], in [9], in test [4], in test [5] and in [6] was greater than 100 µM in each case. Also, the TGI in test [7] and in [8] was greater than 100 µM each time.
Consider `COc1cc(/C=C/C(=O)c2cccc3ccccc23)cc(OC)c1OC`, for which the TGI in test [1] is 37 µM; in test [2], 24.4 µM; in test [4] it was 28.7 µM; in test [5], 30.3 µM; in test [7], 12.8 µM; in [8], 7.32 µM.
Take `O=C(CCc1nc(=S)[nH][nH]1)Nc1cc(Cl)ccc1Cl`: the TGI in test [1], in test [2], in [9], in [3], in test [4] and in test [5] was greater than 100 µM each time. Besides, the TGI in test [6] and in test [8] was greater than 100 µM in each case.
Take `NC1=NN(c2ccccc2)C(=O)C1C(=O)C(=O)Nc1ccc(Cl)cc1` (centres undefined): the TGI in [1], in test [2], in [9], in [3], in test [4] and in test [5] was greater than 100 µM each time. Besides, the TGI in [6], in test [7] and in test [8] was greater than 100 µM each time.
For `O=S(=O)(C1=CC(S(=O)(=O)c2ccccc2)COC1)c1ccccc1` (centres undefined), the TGI in [1], in test [2], in test [9], in test [3], in [4] and in [6] was greater than 100 µM in each case. Besides, the TGI in [8] was greater than 100 µM.
With `Cc1ccccc1NC(=O)CC1C(=O)Nc2ccccc2S1=O` (centres undefined), the TGI in test [1], in [2], in [9], in test [3], in [4] and in [5] was greater than 100 µM each time. The TGI in test [6], in test [7] and in test [8] was greater than 100 µM each time.
On to `O=C(NCCCCCCCCCCCCNC(=O)c1cnc2ccccc2n1)c1cnc2ccccc2n1`, for which the TGI in test [1], in test [2], in test [9], in test [3], in [4] and in [5] was greater than 100 µM in each case. Also, the TGI in test [6], in [7] and in test [8] was greater than 100 µM in each case.
As for `C#CCN(N=O)C(=O)NC(CCCCNC(=O)OCc1ccccc1)C(=O)OCc1ccccc1` (centres undefined), the TGI in [1] is greater than 100 µM; in test [2], greater than 100 µM; in test [9], 42.7 µM; in [3] it was 44 µM; in test [4], 55.3 µM; in test [6], 31.7 µM. Further, the TGI in [7] is greater than 100 µM; in test [8], 41 µM.
For `CC(=O)Nc1ccccc1-c1nc2ccccc2nc1-c1ccccc1`, the TGI in [1], in [2], in test [9], in test [3], in test [4] and in test [7] was greater than 100 µM each time. In addition, the TGI in [8] is greater than 100 µM.
On to `Cc1ccc2nc(NC(=O)C(=O)C(C(=O)c3ccc4ccccc4c3)C3OC(=O)c4ccccc43)sc2c1` (centres undefined), for which the TGI in test [1] was 53.8 µM; in test [2] it was 46.1 µM; in [9] it was 32.7 µM; in [3], 29.3 µM; in test [4] it was 44.5 µM; in [5] it was 5.43 µM. The results for the TGI in test [6], in test [7] and in [8] were 26.3 µM, 27.7 µM and 22.9 µM, respectively.
In the case of `c1ccc2c(c1)[nH]c1cnc3c4ncccc4[nH]c3c12`, the TGI in [1], in [2], in [9], in test [3], in test [4] and in [5] was greater than 100 µM throughout. The TGI in test [6], in test [7] and in [8] was greater than 100 µM each time.
Turning to `CC(=O)OC1C[C@H]2C(OC(=O)c3ccccc3)C3C4(OC(C)=O)COC4C[C@H](OC(C)=O)[C@@]3(C)C(OC(C)=O)[C@H](OC(C)=O)C(=C1C)C2(C)C` (some centres undefined), the TGI in test [1], in test [2], in test [9], in [3], in test [4] and in test [5] was greater than 100 µM in each case. Besides, the TGI was 79.2 µM in test [6], greater than 100 µM in [7] and greater than 100 µM in test [8].
In the case of `Cc1ccccc1/C=C/c1csnn1`, the TGI in test [1] was greater than 100 µM; in test [2], greater than 100 µM; in test [9], greater than 74.3 µM; in [3] it was greater than 56 µM; in [4] it was greater than 100 µM; in test [5] it was greater than 100 µM. The TGI in [6] is greater than 100 µM; in test [7], greater than 100 µM; in [8], greater than 79.9 µM.
Regarding `CCOC(=O)c1oc2c(OC)ccc3c2c1CCC3`, the TGI in [1], in test [2], in [9], in [3], in test [4] and in test [6] was greater than 100 µM in each case. Moreover, the TGI in test [7] and in test [8] was greater than 100 µM throughout.
As for `CCCCCCCCSC(=O)NCCCC`, the TGI is greater than 100 µM in [1]; greater than 100 µM in [2]; greater than 100 µM in test [9]; 75.4 µM in [4]; 80.4 µM in test [6]; greater than 100 µM in test [8].
